{"source": "patent US20090017139A1", "about": "“Iodine therapy dosing for treating medical conditions” (priority 2007, published 2009)", "key": {"[1]": {"tested_on": "patient with follicular cyst of the ovary", "assay": "Example 4: I2 therapy of a patient with ovarian follicular cysts", "type": "in vivo, human", "description": "The post surgical diagnosis was ruptured follicular cyst of the right ovary. After the surgical procedure the patient continued to experience lower right quadrant abdominal pain. […] The patient was started on I2 therapy at a dose of 6.0 mg/d. The patient was seen again 3 months later (December 3 to March 16). After three months of I2 therapy the patient was free of pain which their […] regarded as unique.\nThe patient subsequently stopped I2 therapy and approximately 3 years later symptoms of abdominal and breast pain were present. The patient was started again on daily I2 therapy at a dose of 6.0 mg/d. An ultrasound was performed and small follicular cysts in each ovary was noted. […] The patient was continued on daily iodine therapy at a concentration of 3.0 mg/d."}, "[2]": {"tested_on": "estrogen receptor", "assay": "Example 5: immunocytochemical detection of estrogen receptor in vaginal smears after 2 months of daily I2", "type": "in vivo, Sprague-Dawley rats", "details": "for Immunocytochemical Detection of Estrogen Receptor, Scores (mean ± SD), End: after 2 months daily dosing; for Immunocytochemical Detection of Estrogen Receptor, Scores (mean ± SD), End / Immunocytochemical Detection of Estrogen Receptor, Scores (mean ± SD), Baseline: scale +1 to +3, dissolved IoGen tablets; for Immunocytochemical Detection of Estrogen Receptor, Scores (mean ± SD), Baseline: before dosing", "description": "A total of 24 nulliparous and nonpregnant female Sprague-Dawley rats were received from Charles River Laboratories, Kingston, N.Y. The animals were 10 weeks of age and were examined for signs of disease or injury upon receipt. The animals were housed in stainless steel cages and fed LabDiet™ Certified Rodent Chow 5002 (PMI Feeds, Inc., a subsidiary of Purina Mills, Inc.) ad libitum and were provided fresh filtered tap water ad libitum. Environmental controls were set to maintain a temperature of 18 to 26° C. and a relative humidity of 30 to 70%. A 12-hour light/dark cycle was employed and the room underwent a minimum of ten fresh air changes/hour.\nThe animals were allowed to acclimate to laboratory conditions for 2 weeks. No abnormal findings excluding animals from study were noted. The animals were released from conditioning following an examination. Each animal was identified with a unique number that was indicated by ear punch. Cage labels, color-coded by group, identified each cage. The animals were maintained at laboratory conditions for an additional 2 weeks and then randomized into treatment groups by weight.\nTablets of IoGen, a registered trademark of Symbollon Pharmaceuticals Inc. of Framingham Mass. USA were dissolved in distilled water. IoGen tablets are compositions of iodide and iodate in a pharmaceutically acceptable carrier which will form molecular iodine “I2” once in contact with the gastric fluid in the stomach via a diffusion controlled oxidation reduction reaction as taught in U.S. Pat. No. 5,885,592 the disclosure of which is incorporated herein by reference. For this example the IoGen tablets weighted 400 mg and contained the equivalent of 6 mg of I2 in the form of iodide and iodate. The dissolved IoGen tables were used to provide defined daily doses of I2 to rats according to Table 1 below.\nAfter randomization vaginal smears were taken from rats using a cotton swab; the swab was inserted into the vagina and rotated 360° in a clockwise direction, then the swab was smeared onto a glass slide and the smear was fixed in 3.7% formaldehyde with phosphate buffered saline (PBS) for 15 minutes. The slides were washed in PBS for 5 minutes and subsequently immersed in cold methanol and acetone (both at −10° C.) for 3 minutes. After a final rinse in cold PBS for 5 minutes the slides were stored at −20° C. in a solution of PBS-glycerol.\nRats were then dosed daily for the next 2 months according to the schedule in Table 1. […] After 2 months of daily dosing vaginal swabs were taken again and slides were prepared as on day 1 of the dosing regimen.\nImmunocytochemical (IC) detection of estrogen receptor (hereafter “ER”) status was accomplished using mouse monoclonal antibody 6F11 from Vector Laboratories (Burlingame, Calif.). A gentle stream of 10 mM citrate buffer (pH 6.0) was passed over each slide for 45 minutes and then a 1/25 dilution of the antibody was incubated with slides at room temperature for 30 minutes. Slides were washed and the Vectastain ABC Kit for Mouse IgG (Vector Laboratories; Burlingame, Calif.) was used to visualize ER. The chromophone 3,3′ diaminobenzidine and peroxidase were used to stain areas of the slides that contained ER. The intensity of staining was scored semi quantitatively on a scale of +1 to +3. Each dosing group contained 6 animals."}, "[3]": {"details": "reacts with water at neutral pH; cited from earlier work"}, "[4]": {"tested_on": "female patients with fibrocystic breast condition", "assay": "Example 2: 36 month study, treatment emergent thyroid status in iodine adapted patients", "type": "in vivo, human", "details": "for Hyperthyroidism Overt ↓TSH ↑T4 / Hyperthyroidism Subclinical ↓TSH / Hypothyroidism Overt ↑TSH (5-10) ↓T4 / Hypothyroidism Overt ↑TSH (10-20) ↓T4 / Hypothyroidism Overt ↑TSH (>20) ↓T4 / Hypothyroidism Subclinical ↑TSH (5-10) / Hypothyroidism Subclinical ↑TSH (10-20) / Hypothyroidism Subclinical ↑TSH (>20): iodine adapted, patients (percent of dose group)", "description": "Female patients already receiving aqueous I2 therapy for fibrocystic breast condition were enrolled in study that ran for 36 months. Patients in this study were dosed at I2 levels that ranged from 3 to 12 mg/d. A total of 923 patients were enrolled; over 700 patients remained on drug for at least 2 years. The ages of participants ranged from 17 to 78 years with an average age of 47.4 years.\nVariations in treatment emergent thyroid status were evaluated based on TSH and T4 values (see Table 1). […] Patients were categorized sub-clinical hypothyroid if TSH was elevated and T4 values were normal; patients with depressed T4 values were considered overtly hypothyroid."}}, "data": [{"smiles": "II", "note": "[I2, molecular iodine]", "values": [{"measurement": "symptoms on continued therapy", "setting": "[1]; 3.0 mg/d, seen 9 and 18 months later", "result": "remained asymptomatic"}, {"measurement": "abdominal pain", "setting": "[1]; 6.0 mg/d, after three months of therapy", "result": "free of pain"}, {"measurement": "ultrasound of the ovaries", "setting": "[1]; 6.0 mg/d, approximately 4 months later", "result": "ovaries appeared normal"}, {"measurement": "symptoms of pain", "setting": "[1]; 6.0 mg/d, within a month of reinitiating therapy", "result": "no longer present"}, {"measurement": "Immunocytochemical Detection of Estrogen Receptor, Scores (mean ± SD), End", "setting": "[2]; Group 2, .06 mg I2/kg/day", "result": "1.167 ± 0.752"}, {"measurement": "Immunocytochemical Detection of Estrogen Receptor, Scores (mean ± SD), Baseline", "setting": "[2]; Group 2, .06 mg I2/kg/day", "result": "2.000 ± 0.632"}, {"measurement": "Immunocytochemical Detection of Estrogen Receptor, Scores (mean ± SD), End", "setting": "[2]; Group 3, 0.2 mg I2/kg/day", "result": "1.167 ± 0.408"}, {"measurement": "Immunocytochemical Detection of Estrogen Receptor, Scores (mean ± SD), Baseline", "setting": "[2]; Group 3, 0.2 mg I2/kg/day", "result": "2.167 ± 0.753"}, {"measurement": "Immunocytochemical Detection of Estrogen Receptor, Scores (mean ± SD), End", "setting": "[2]; Group 4, 2 mg I2/kg/day", "result": "0.833 ± 0.408"}, {"measurement": "Immunocytochemical Detection of Estrogen Receptor, Scores (mean ± SD), Baseline", "setting": "[2]; Group 4, 2 mg I2/kg/day", "result": "2.333 ± 0.516"}, {"measurement": "effect of daily treatment on ER in the endometrium", "setting": "[2]; trend across the 3 dosing groups p<0.001", "result": "down regulation of ER"}, {"measurement": "change from baseline to end in ER score, placebo versus all rats that received I2", "setting": "[2]; unpaired t-test, p=0.015", "result": "statistically significant difference"}, {"measurement": "maximum period of storage in an aqueous environment", "setting": "[3]", "result": "2 to 8", "unit": "h"}, {"measurement": "proportion of patients with sub-clinical hypothyroidism", "setting": "[4]; 3 mg dose group", "result": 13, "unit": "%"}, {"measurement": "rate of all sub-clinical conditions", "setting": "[4]; 3 mg dose group", "result": 18.3, "unit": "%"}, {"measurement": "proportion of patients with sub-clinical hypothyroidism", "setting": "[4]; 6 mg dose group", "result": 16.5, "unit": "%"}, {"measurement": "rate of all sub-clinical conditions", "setting": "[4]; 6 mg dose group", "result": 22.2, "unit": "%"}, {"measurement": "Hyperthyroidism Overt ↓TSH ↑T4", "setting": "[4]; I2 3.0 mg/d", "result": "1 (0.3)"}, {"measurement": "Hyperthyroidism Subclinical ↓TSH", "setting": "[4]; I2 3.0 mg/d", "result": "16 (5.3)"}, {"measurement": "Hypothyroidism Overt ↑TSH (5-10) ↓T4", "setting": "[4]; I2 3.0 mg/d", "result": "2 (0.4)"}, {"measurement": "Hypothyroidism Overt ↑TSH (10-20) ↓T4", "setting": "[4]; I2 3.0 mg/d", "result": "0 (0.0)"}, {"measurement": "Hypothyroidism Overt ↑TSH (>20) ↓T4", "setting": "[4]; I2 3.0 mg/d", "result": "0 (0.0)"}, {"measurement": "Hypothyroidism Subclinical ↑TSH (5-10)", "setting": "[4]; I2 3.0 mg/d", "result": "27 (9.0)"}, {"measurement": "Hypothyroidism Subclinical ↑TSH (10-20)", "setting": "[4]; I2 3.0 mg/d", "result": "10 (3.3)"}, {"measurement": "Hypothyroidism Subclinical ↑TSH (>20)", "setting": "[4]; I2 3.0 mg/d", "result": "2 (0.7)"}, {"measurement": "Hyperthyroidism Overt ↓TSH ↑T4", "setting": "[4]; I2 6.0 mg/d", "result": "1 (0.2)"}, {"measurement": "Hyperthyroidism Subclinical ↓TSH", "setting": "[4]; I2 6.0 mg/d", "result": "28 (5.7)"}, {"measurement": "Hypothyroidism Overt ↑TSH (5-10) ↓T4", "setting": "[4]; I2 6.0 mg/d", "result": "0 (0.0)"}, {"measurement": "Hypothyroidism Overt ↑TSH (10-20) ↓T4", "setting": "[4]; I2 6.0 mg/d", "result": "2 (0.4)"}, {"measurement": "Hypothyroidism Overt ↑TSH (>20) ↓T4", "setting": "[4]; I2 6.0 mg/d", "result": "2 (0.4)"}, {"measurement": "Hypothyroidism Subclinical ↑TSH (5-10)", "setting": "[4]; I2 6.0 mg/d", "result": "70 (14)"}, {"measurement": "Hypothyroidism Subclinical ↑TSH (10-20)", "setting": "[4]; I2 6.0 mg/d", "result": "10 (2.0)"}, {"measurement": "Hypothyroidism Subclinical ↑TSH (>20)", "setting": "[4]; I2 6.0 mg/d", "result": "1 (0.2)"}, {"measurement": "Hyperthyroidism Overt ↓TSH ↑T4", "setting": "[4]; I2 9.0 mg/d", "result": "0 (0.0)"}, {"measurement": "Hyperthyroidism Subclinical ↓TSH", "setting": "[4]; I2 9.0 mg/d", "result": "0 (0.0)"}, {"measurement": "Hypothyroidism Overt ↑TSH (5-10) ↓T4", "setting": "[4]; I2 9.0 mg/d", "result": "0 (0.0)"}, {"measurement": "Hypothyroidism Overt ↑TSH (10-20) ↓T4", "setting": "[4]; I2 9.0 mg/d", "result": "0 (0.0)"}, {"measurement": "Hypothyroidism Overt ↑TSH (>20) ↓T4", "setting": "[4]; I2 9.0 mg/d", "result": "0 (0.0)"}, {"measurement": "Hypothyroidism Subclinical ↑TSH (5-10)", "setting": "[4]; I2 9.0 mg/d", "result": "0 (0.0)"}, {"measurement": "Hypothyroidism Subclinical ↑TSH (10-20)", "setting": "[4]; I2 9.0 mg/d", "result": "1 (6.3)"}, {"measurement": "Hypothyroidism Subclinical ↑TSH (>20)", "setting": "[4]; I2 9.0 mg/d", "result": "1 (6.3)"}, {"measurement": "Hyperthyroidism Overt ↓TSH ↑T4", "setting": "[4]; I2 12.0 mg/d", "result": "0 (0.0)"}, {"measurement": "Hyperthyroidism Subclinical ↓TSH", "setting": "[4]; I2 12.0 mg/d", "result": "1 (25)"}, {"measurement": "Hypothyroidism Overt ↑TSH (5-10) ↓T4", "setting": "[4]; I2 12.0 mg/d", "result": "0 (0.0)"}, {"measurement": "Hypothyroidism Overt ↑TSH (10-20) ↓T4", "setting": "[4]; I2 12.0 mg/d", "result": "0 (0.0)"}, {"measurement": "Hypothyroidism Overt ↑TSH (>20) ↓T4", "setting": "[4]; I2 12.0 mg/d", "result": "0 (0.0)"}, {"measurement": "Hypothyroidism Subclinical ↑TSH (5-10)", "setting": "[4]; I2 12.0 mg/d", "result": "0 (0.0)"}, {"measurement": "Hypothyroidism Subclinical ↑TSH (10-20)", "setting": "[4]; I2 12.0 mg/d", "result": "0 (0.0)"}, {"measurement": "Hypothyroidism Subclinical ↑TSH (>20)", "setting": "[4]; I2 12.0 mg/d", "result": "0 (0.0)"}, {"measurement": "Overt hypothyroidism, patients (second statement, compared to prevalence of overt hyperthyroidism)", "setting": "[4]; all patients, 3 to 12 mg/d", "result": 0.5, "unit": "%"}, {"measurement": "overall incidence of treatment emergent sub-clinical hyper- or hypothyroidism", "setting": "[4]; all patients, 3 to 12 mg/d", "result": 20.6, "unit": "%"}, {"measurement": "Overt hypothyroidism, patients", "setting": "[4]; all patients, 3 to 12 mg/d, first statement", "result": 0.2, "unit": "%"}]}]}
